Drawing on patent publication US8541588B2, “Sulfonamide derivatives” (Pfizer Limited, priority 2009, dated 2013), this text covers IC50 for 25 molecules.

A value given as a limit tells only on which side of the number the result lay.

The target of the first test is T1, Nav1.7 (or SCN9A) channel; HEK cells stably transfected with hSCN9A (Homo sapiens, UniProt Q15858).
T1 construct: expressed in transfected cells
T1 sequence (Q15858 whole entry): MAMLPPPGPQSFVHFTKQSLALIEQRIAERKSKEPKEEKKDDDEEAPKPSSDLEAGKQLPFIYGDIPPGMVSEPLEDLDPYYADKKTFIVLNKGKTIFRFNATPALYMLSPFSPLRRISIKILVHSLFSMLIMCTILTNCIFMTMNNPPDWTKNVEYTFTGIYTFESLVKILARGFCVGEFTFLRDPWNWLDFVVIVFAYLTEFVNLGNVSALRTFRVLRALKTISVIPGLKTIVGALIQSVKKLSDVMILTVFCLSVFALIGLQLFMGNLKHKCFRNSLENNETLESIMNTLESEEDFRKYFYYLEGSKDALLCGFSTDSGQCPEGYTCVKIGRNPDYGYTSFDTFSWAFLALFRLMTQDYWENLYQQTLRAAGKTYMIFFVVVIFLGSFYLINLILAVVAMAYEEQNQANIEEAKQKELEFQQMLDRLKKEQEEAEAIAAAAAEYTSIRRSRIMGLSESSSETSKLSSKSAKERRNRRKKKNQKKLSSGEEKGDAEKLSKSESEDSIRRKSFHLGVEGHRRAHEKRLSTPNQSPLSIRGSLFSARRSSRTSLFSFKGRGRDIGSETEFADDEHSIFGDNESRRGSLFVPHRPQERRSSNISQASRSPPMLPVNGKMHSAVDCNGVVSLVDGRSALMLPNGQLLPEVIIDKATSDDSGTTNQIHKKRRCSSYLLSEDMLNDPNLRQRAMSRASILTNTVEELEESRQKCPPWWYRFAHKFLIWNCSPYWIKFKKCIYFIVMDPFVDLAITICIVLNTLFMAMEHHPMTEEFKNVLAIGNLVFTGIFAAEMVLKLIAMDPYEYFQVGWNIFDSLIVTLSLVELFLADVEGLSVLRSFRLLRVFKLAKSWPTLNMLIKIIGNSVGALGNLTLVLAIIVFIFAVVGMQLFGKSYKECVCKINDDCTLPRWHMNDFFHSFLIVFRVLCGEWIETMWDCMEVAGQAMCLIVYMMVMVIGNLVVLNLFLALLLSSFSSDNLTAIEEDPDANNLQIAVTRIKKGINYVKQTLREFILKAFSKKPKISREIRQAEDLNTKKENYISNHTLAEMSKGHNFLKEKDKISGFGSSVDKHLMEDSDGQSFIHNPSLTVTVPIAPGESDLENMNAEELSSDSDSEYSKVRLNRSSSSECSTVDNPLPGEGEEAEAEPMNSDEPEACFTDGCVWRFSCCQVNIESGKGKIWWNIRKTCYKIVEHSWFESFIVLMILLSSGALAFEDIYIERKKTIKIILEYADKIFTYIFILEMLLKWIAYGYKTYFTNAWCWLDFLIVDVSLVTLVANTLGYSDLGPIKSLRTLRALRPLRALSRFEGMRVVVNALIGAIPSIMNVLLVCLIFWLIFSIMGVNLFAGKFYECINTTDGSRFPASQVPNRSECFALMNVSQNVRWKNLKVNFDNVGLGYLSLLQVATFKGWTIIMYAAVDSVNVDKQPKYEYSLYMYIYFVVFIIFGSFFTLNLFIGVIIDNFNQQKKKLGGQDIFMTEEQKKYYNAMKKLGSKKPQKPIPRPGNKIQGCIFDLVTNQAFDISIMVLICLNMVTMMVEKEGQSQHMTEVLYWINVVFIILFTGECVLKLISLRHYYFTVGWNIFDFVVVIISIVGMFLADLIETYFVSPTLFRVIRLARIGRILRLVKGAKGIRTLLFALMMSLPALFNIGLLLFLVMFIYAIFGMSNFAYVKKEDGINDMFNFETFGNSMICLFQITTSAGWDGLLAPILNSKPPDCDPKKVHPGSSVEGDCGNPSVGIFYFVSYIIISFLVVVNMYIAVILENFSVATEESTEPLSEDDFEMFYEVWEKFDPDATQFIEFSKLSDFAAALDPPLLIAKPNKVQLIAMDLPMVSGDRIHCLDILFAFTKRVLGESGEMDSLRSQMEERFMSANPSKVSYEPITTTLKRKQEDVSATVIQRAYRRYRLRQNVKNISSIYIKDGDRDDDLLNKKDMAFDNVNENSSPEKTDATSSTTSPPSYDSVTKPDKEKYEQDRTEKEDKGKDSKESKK
The experiment in a line: Nav1.7 block, PatchXpress 7000 automated whole-cell voltage clamp, estimated IC50 (EIC50). It is filed as cell-based. Conditions: PatchXpress platform; hSCN9A HEK cells held at V1/2 of inactivation; estimated IC50.
As for `O=S(=O)(Nc1nncs1)c1ccc(Oc2ccccc2-c2ccccc2)c(F)c1` [Example 251, 4-(biphenyl-2-yloxy)-3-fluoro-N-(1,3,4-thiadiazol-2-yl)benzenesulfonamide], the half-maximal inhibitory concentration (IC50) is 2540 nM. As to `CC(C)(C)n1ccc(-c2ccc(Oc3ccc(S(=O)(=O)Nc4nccs4)cc3C#N)c(F)c2)n1` [Example 184, 4-[4-(1-tert-butyl-1H-pyrazol-3-yl)-2-fluoro-phenoxy]-3-cyano-N-thiazol-2-yl-benzenesulfonamide], the half-inhibitory concentration (IC50) is 9170 nM. Consider `Cc1cc(C)n(-c2ccc(Oc3ccc(S(=O)(=O)Nc4nccs4)cc3C#N)cc2)n1` [Example 186, 3-cyano-4-[4-(3,5-dimethyl-pyrazol-1-yl)-phenoxy]-N-thiazol-2-yl-benzenesulfonamide], for which the half-inhibitory concentration (IC50) was 1050 nM.

Consider `Cn1ccnc1NS(=O)(=O)c1ccc(Oc2ccccc2-c2ccccc2)c(C#N)c1` [Example 113, 4-(biphenyl-2-yloxy)-3-cyano-N-(1-methyl-1H-imidazol-2-yl)benzenesulfonamide], for which the half-maximal inhibitory concentration (IC50) is 12900 nM. Take `Cc1cn(Cc2ccccc2)nc1Oc1ccc(S(=O)(=O)Nc2ncc(Cl)s2)cc1C#N` [Example 139, 4-[(1-benzyl-4-methyl-1H-pyrazol-3-yl)oxy]-N-(5-chloro-1,3-thiazol-2-yl)-3-cyanobenzenesulfonamide]: the 50% inhibitory concentration (IC50) was 5000 nM.

For the molecule `N#Cc1cc(S(=O)(=O)Nc2nccs2)ccc1Oc1ccc(-c2cc[nH]n2)cc1F` [Example 185, 3-cyano-4-[2-fluoro-4-(1H-pyrazol-3-yl)-phenoxy]-N-thiazol-2-yl-benzenesulfonamide], the half-inhibitory concentration (IC50) was 33000 nM.

With `N#Cc1cc(S(=O)(=O)Nc2ncco2)ccc1Oc1ccccc1-c1ccccc1` [Example 95, 4-(biphenyl-2-yloxy)-3-cyano-N-1,3-oxazol-2-ylbenzenesulfonamide], the IC50 is above 10000 nM. As to `N#Cc1cc(S(=O)(=O)Nc2ncns2)ccc1Oc1ccccc1-c1ccccc1` [Example 24, 4-(biphenyl-2-yloxy)-3-cyano-N-(1,2,4-thiadiazol-5-yl)benzenesulfonamide], the IC50 is 110 nM.

The test is the same for the next values; noted with them: estimated IC50; hSCN9A HEK cells, PatchXpress platform; Examples 283-814.
With `CCn1nc(C(F)(F)F)cc1-c1ccc(Oc2ccc(S(=O)(=O)Nc3ncccc3Cl)cc2C#N)cc1` [Example 339, N-(3-chloropyridin-2-yl)-3-cyano-4-{4-[1-ethyl-3-(trifluoromethyl)-1H-pyrazol-5-yl]phenoxy}benzenesulfonamide], the half-inhibitory concentration (IC50) is 15000 nM.

As for `N#Cc1cc(S(=O)(=O)Nc2nccs2)ccc1Oc1ccc(Cl)cc1-c1cncnc1` [Example 701, 4-(4-chloro-2-pyrimidin-5-ylphenoxy)-3-cyano-N-1,3-thiazol-2-ylbenzenesulfonamide], the IC50 is 300 nM. Consider `Cn1nccc1-c1cc(C(F)(F)F)ccc1Oc1ccc(S(=O)(=O)Nc2nccs2)cc1C#N` [Example 440, 3-cyano-4-[2-(1-methyl-1H-pyrazol-5-yl)-4-(trifluoromethyl)phenoxy]-N-1,3-thiazol-2-ylbenzenesulfonamide], for which the concentration for half-maximal inhibition (IC50) was 17 nM. Same read-out and setting: the same measure for `N#Cc1cc(S(=O)(=O)Nc2nccs2)ccc1Oc1ccc(-c2cc(C(F)(F)F)nn2C2CNC2)cc1` [Example 558, 4-{4-[1-azetidin-3-yl-3-(trifluoromethyl)-1H-pyrazol-5-yl]phenoxy}-3-cyano-N-1,3-thiazol-2-ylbenzenesulfonamide]: 39 nM; for `Cn1nccc1-c1cc(CCO)ccc1Oc1ccc(S(=O)(=O)Nc2ncc(F)s2)cc1C#N` [Example 716, 3-cyano-N-(5-fluoro-1,3-thiazol-2-yl)-4-[4-(2-hydroxyethyl)-2-(1-methyl-1H-pyrazol-5-yl)phenoxy]benzenesulfonamide]: 430 nM. The same measure, in the same setting: the same measure for `N#Cc1cc(S(=O)(=O)Nc2ncns2)ccc1Oc1ccc(OC(F)(F)F)cc1-c1ccn[nH]1` [Example 793, 3-cyano-4-[2-(1H-pyrazol-5-yl)-4-(trifluoromethoxy)phenoxy]-N-1,2,4-thiadiazol-5-ylbenzenesulfonamide]: 3.1 nM; for `Nc1n[nH]cc1-c1cc(Cl)ccc1Oc1cc(F)c(S(=O)(=O)Nc2ncns2)cc1F` [Example 742, 4-[2-(3-amino-1H-pyrazol-4-yl)-4-chlorophenoxy]-2,5-difluoro-N-1,2,4-thiadiazol-5-ylbenzenesulfonamide]: 3.6 nM.

As to `N#Cc1cc(S(=O)(=O)Nc2ncns2)ccc1Oc1ccc(Cl)cc1-c1cccc(CN)c1` [Example 511, 4-{[3′-(aminomethyl)-5-chlorobiphenyl-2-yl]oxy}-3-cyano-N-1,2,4-thiadiazol-5-ylbenzenesulfonamide], the IC50 is 8.4 nM. Still for that read-out and setting: in the case of `Cn1nc(C(F)(F)F)cc1-c1cccc(Oc2ccc(S(=O)(=O)Nc3nccs3)cc2C#N)c1F` [Example 527, 3-cyano-4-{2-fluoro-3-[1-methyl-3-(trifluoromethyl)-1H-pyrazol-5-yl]phenoxy}-N-1,3-thiazol-2-ylbenzenesulfonamide] it was 140 nM; in that of `O=S(=O)(Nc1ccc(F)cn1)c1cc(Cl)c(Oc2ccc(Cl)cc2C2CCNCC2)cc1F` [Example 623, 5-chloro-4-(4-chloro-2-piperidin-4-ylphenoxy)-2-fluoro-N-(5-fluoropyridin-2-yl)benzenesulfonamide], 46 nM; in that of `Cn1nccc1-c1cc(Cl)ccc1Oc1ccc(S(=O)(=O)Nc2ncc(F)cc2F)cc1F` [Example 667, 4-[4-chloro-2-(1-methyl-1H-pyrazol-5-yl)phenoxy]-N-(3,5-difluoropyridin-2-yl)-3-fluorobenzenesulfonamide], 3100 nM.

Staying with this test, now noted: estimated IC50; hSCN9A HEK cells, PatchXpress platform; Examples 815-1040.
As for `N#Cc1cc(S(=O)(=O)Nc2ncns2)ccc1Oc1ccc(Cl)cc1-c1cccc(CN2CCC2)c1` [Example 852, 4-{[3′-(azetidin-1-ylmethyl)-5-chlorobiphenyl-2-yl]oxy}-3-cyano-N-1,2,4-thiadiazol-5-ylbenzenesulfonamide], the IC50 was 1.6 nM.

For the molecule `Nc1n[nH]cc1-c1cc(Cl)ccc1Oc1cc(F)c(S(=O)(=O)Nc2ncccn2)cc1Cl` [Example 1019, 4-[2-(3-amino-1H-pyrazol-4-yl)-4-chlorophenoxy]-5-chloro-2-fluoro-N-pyrimidin-2-ylbenzenesulfonamide], the half-inhibitory concentration (IC50) is 22 nM. The same measure, in the same setting: in the case of `Nc1cc(-c2cc(Cl)ccc2Oc2cc(F)c(S(=O)(=O)Nc3nncs3)cc2F)ccn1` [Example 820, 4-[2-(2-aminopyridin-4-yl)-4-chlorophenoxy]-2,5-difluoro-N-1,3,4-thiadiazol-2-ylbenzenesulfonamide] it was 230 nM; in that of `N#Cc1cc(S(=O)(=O)Nc2ncns2)ccc1Oc1cc(F)c(C(F)(F)F)cc1-c1ccnnc1` [Example 1035, 3-Cyano-4-[5-fluoro-2-pyridazin-4-yl-4-(trifluoromethyl)phenoxy]-N-1,2,4-thiodiazol-5-ylbenzenesulfonamide], 3.8 nM; in that of `N#Cc1cc(S(=O)(=O)Nc2ncns2)ccc1Oc1cc(C(F)(F)F)ccc1-c1ccnnc1` [Example 940, 3-cyano-4-[2-pyridazin-4-yl-5-(trifluoromethyl)phenoxy]-N-1,2,4-thiadiazol-5-ylbenzenesulfonamide], 31 nM. Same read-out and setting: the same measure for `Cn1nccc1-c1cc(Cl)ccc1Oc1ccc(S(=O)(=O)Nc2cc[nH]n2)cc1C#N` [Example 922, 4-[4-chloro-2-(1-methyl-1H-pyrazol-5-yl)phenoxy]-3-cyano-N-1H-pyrazol-3-ylbenzenesulfonamide]: above 10000 nM.
